Source: patent EP1228058B1, “BENZOPYRANYL GUANIDINE DERIVATIVES, PROCESS FOR PREPARATION THEREOF, AND PHARMACEUTICAL COMPOSITIONS CONTAINING THEM” (Dongbu Hannong Chemical Co., Ltd., priority 1999, dated 2001)
pIC50: −log10 of the molar value.

Tests used:
rat aorta = test: Vasodilation effects on isolated blood vessels of rats (methoxamine-constricted aortic rings); assay type: cell-based; conditions: isolated rat aorta constricted with methoxamine (3 uM); read-out: Vasodilation Activity (in Vitro, rat aorta) (IC50)
Source text: Male Sprague-Dawly rats (350-450 g, obtained from the Experimental Animal Team of the Korea Research Institute of Chemical Technology) were knocked unconscious by hitting the occipital region, sacrificed by cervical dislocation, and underwent thoracotomy. After being quickly removed, the thoracic aorta was deprived of the adipose tissue and cut into aortic rings of 3 mm width. The aorta was lightly rubbed with a modified Krebs Henseleit buffer (Physiological Salt Solution, PSS) soaked cotton club to remove the inner epithelial layer therefrom. While being suspended in an organ bath containing a physiological buffer, the vascular tissue was allowed to equilibrate under a resting tension of 2 g and then, stand for 1 hour at 37 °C for stabilization with a supply of a carbogen consisting of 95% O2-5% CO2.
Thereafter, the vascular tissue was constricted with 10^-5 M phenylephrine and washed several times with PSS and this procedure was repeated again to ensure the stable reacivity of vascular smooth muscle to repetitive constriction/dilatation.
In addition, 3x10^-6 M methoxamine was used to induce an intensive constriction in the vascular smooth muscle. When the vasoconstriction induced by the methoxamine reached and maintained a maximum, test compounds and controls were cumulatively added to the organ baths in concentrations of 1, 3, 10 and 30 uM so as to induce vasodilatation. As for the controls, they were Cromakalim and BMS-180448 (the compounds of the chemical formula 2), both known to be the first generation KATP activator with potent vasodilatation and cardioprotection effects.
Following the addition of the drugs, the change in the maximal constriction induced by methoxamine was calculated to plot a concentration-dilation response curve. Through a linear regression analysis, IC50, the drug concentration at which the vascular tissue is 50% dilated, was obtained for each drug.

HUVEC = test: Inhibition of HUVEC tube formation on Matrigel; assay type: cell-based, Human; design: key: -: no effect; +/-: week effect; +: moderate effect; ++: strong effect
Procedure: HUVEC (Human umbilical vein endothelial cells, ATCC CRL-1730) were cultured, and tubulogenesis was induced in vascular endothelial cells by plating them onto the surface of Matrigel for several hours. The effects on tube formation of the test compounds were compared with the vehicle treated controls, then confirmed their in vitro anti-angiogenic effect indirectly.

[1] = Acute oral toxicity test in rats; conditions: rat, in vivo, single oral dose in 0.5% methyl cellulose, read-out: lethal dose (LD50) for oral administration
Procedure: In this test six-week old SPF SD rats were used with two rats assigned to each group. The compounds of examples 1, 2, 3, 5, 7, 8, 9, 10, 13, 14, 15, 19, 22, 23, 24, 25, 26, 28, 29, 30, 31, 32, 33, 34, 35, 36, 37, 38, 39, 40, 41, 44, 46, 47, 48, 49, 51, 52, 57, 58, 60, 62, 64, 67, 68, 69, 71 and 72 were suspended in 0.5% methyl cellulose, respectively, and administered orally at a single dose of 1 g/kg using a ball-tipped needle. The dosing volume was 10 ml/kg. […] All survivors at the end of the observation period underwent laparotomy under ether anesthesia and the blood samples were taken from the abdominal aorta for hematological tests and biochemical analysis. After sacrificing the animals, autopsy was performed for macroscopic observation of the organs and tissues. Tissue samples of vital organs from macroscopic legion were removed and fixed in 10% neutral buffered formalin solution, then processed by standard procedures for histopathology and examined under light microscope. There were no significant changes in clinical symptoms, body weight and mortalities. Also in hematology, serum chemistry parameters and macroscopic observation, no drug-related changes were observed.

SMILES | pIC50 (rat aorta) | Inhibitory Effects on Tube Formation (HUVEC; 10 uM) | Inhibitory Effects on Tube Formation (HUVEC; 100 uM) | LD50 [1] [mg/kg]
CC1(C)Oc2ccc(C#N)cc2C(N2CCCC2=O)C1O (stereo not shown) [Cromakalim, reference compound] | 7.17 | – | – | –
COC(OC)[C@]1(C)Oc2ccc([N+](=O)[O-])cc2[C@@H](NC(=NC#N)Nc2ccc(Cl)cc2)[C@@H]1O [Example 2, (2R, 3S, 4R)-N''-cyano-N-(6-nitro-3,4-dihydro-3-hydroxy-2-methyl-2-dimethoxymethyl-2H-benzopyran-4-yl)-N'-(4-chlorophenyl)guanidine] | – | + | ++ | > 1000
COC(OC)[C@@]1(C)Oc2ccc([N+](=O)[O-])cc2[C@H](NC(=NC#N)Nc2ccc(Cl)cc2)[C@H]1O [Example 10, (2S, 3R, 4S)-N''-cyano-N-(6-nitro-3,4-dihydro-3-hydroxy-2-methyl-2-dimethoxymethyl-2H-benzopyran-4-yl)-N'-(4-chlorophenyl)guanidine] | – | + | ++ | > 1000
COC(OC)[C@@]1(C)Oc2ccc([N+](=O)[O-])cc2[C@@H](NC(=NC#N)Nc2cccc(C(F)(F)F)c2)[C@@H]1O [Example 15, (2S, 3S, 4R)-N''-cyano-N-(6-nitro-3,4-dihydro-3-hydroxy-2-methyl-2-dimethoxymethyl-2H-benzopyran-4-yl)-N'-(3-trifluoromethylphenyl)guanidine] | 4.85 | – | – | > 1000
COc1ccc(NC(=NC#N)N[C@H]2c3cc([N+](=O)[O-])ccc3O[C@](C)(C(OC)OC)[C@@H]2O)cc1 [Example 16, (2S, 3R, 4S)-N''-cyano-N-(6-nitro-3,4-dihydro-3-hydroxy-2-methyl-2-dimethoxymethyl-2H-benzopyran-9-yl)-N'-(4-methoxyphenyl) guanidine] | – | +/- | +/- | –
COC(OC)[C@@]1(C)Oc2ccc(Br)cc2[C@@H](NC(=NC#N)NCc2ccccc2)[C@@H]1O [Example 47, (2S, 3S, 4R)-N''-cyano-N-(6-bromo-3,4-dihydro-3-hydroxy-2-methyl-2-dimethoxymethyl-2H-benzopyran-4-yl)-N'-benzylguanidine] | – | – | – | > 1000
COc1ccc(CNC(=NC#N)N[C@@H]2c3cc([N+](=O)[O-])ccc3O[C@](C)(C(OC)OC)[C@H]2O)cc1OC [Example 48, (2S, 3S, 4R)-N''-cyano-N-(6-nitro-3,4-dihydro-3-hydroxy-2-methyl-2-dimethoxymethyl-2H-benzopyran-4-yl)-N'-(3,4-dimethoxybenzyl) guanidine] | – | – | – | > 1000
COc1ccc(CNC(=NC#N)N[C@@H]2c3cc(N)ccc3O[C@](C)(C(OC)OC)[C@H]2O)cc1OC [Example 49, (2S, 3S, 4R)-N''-cyano-N-(6-amino-3,4-dihydro-3-hydroxy-2-methyl-2-dimethoxymethyl-2H-benzopyran-4-yl)-N'-(3,4-dimethoxybenzyl) guanidine] | – | – | – | > 1000
COc1ccc(CNC(=NC#N)N[C@@H]2c3cc(N)ccc3O[C@](C)(C(OC)OC)[C@H]2O)cc1 [Example 51, (2S,3S,4R)-N''-cyano-N-(6-amino-3,4-dihydro-3-hydroxy-2-methyl-2-dimethoxymethyl-2H-benzopyran-4-yl)-N'-(4-methoxybenzyl) guanidine] | – | – | – | > 1000
COC(OC)[C@@]1(C)Oc2ccc([N+](=O)[O-])cc2[C@@H](NC(=NC#N)NCc2cccc([N+](=O)[O-])c2)[C@@H]1O [Example 52, (2S, 3S, 4R)-N''-cyano-N-(6-nitro-3,4-dihydro-3-hydroxy-2-methyl-2-dimethoxymethyl-2H-benzopyran-4-yl)-N'-(3-nitrobenzyl)guanidine] | – | +/- | ++ | > 1000
COC(OC)[C@@]1(C)Oc2ccc(N)cc2[C@H](/N=C(\NC#N)NCc2ccccc2)[C@H]1O [Example 57, (2S, 3R, 4S)-N''-cyano-N-(6-amino-3,4-dihydro-3-hydroxy-2-methyl-2-dimethoxymethyl-2H-benzopyran-4-yl)-N'-benzylguanidine] | – | – | – | > 1000
COC(OC)[C@]1(C)Oc2ccc(N)cc2[C@H](NC(=NC#N)NCc2ccccc2)[C@H]1O [Example 58, (2R, 3R, 4S)-N''-cyano-N-(6-amino-3,4-dihydro-3-hydroxy-2-methyl-2-dimethoxymethyl-2H-benzopyran-4-yl)-N'-benzylguanidine] | – | – | – | > 1000
C[C@]1(C2OCCO2)Oc2ccc([N+](=O)[O-])cc2[C@@H](NC(=NC#N)NCc2ccccc2)[C@@H]1O [Example 60, (2S, 3S, 4R)-N''-cyano-N-(6-nitro-3,4-dihydro-3-hydroxy-2-methyl-2-([1,3]dioxolan-2-yl)-2H-benzopyran-4-yl)-N'-benzylguanidine] | – | – | – | > 1000
C[C@]1(C2OCCCO2)Oc2ccc([N+](=O)[O-])cc2[C@@H](NC(=NC#N)NCc2ccccc2)[C@@H]1O [Example 62, (2S, 3S, 4R) -N''-cyano-N-(6-nitro-3,4-dihydro-3-hydroxy-2-methyl-2-([1,3]dioxan-2-yl)-2H-benzopyran-4-yl)-N'-benzylguanidine] | – | – | – | > 1000
CC1(C)COC([C@@]2(C)Oc3ccc([N+](=O)[O-])cc3[C@@H](NC(=NC#N)NCc3ccccc3)[C@@H]2O)OC1 [Example 64, (2S, 3S, 4R)-N''-cyano-N-(6-nitro-3,9-dihydro-3-hydroxy-2-methyl-2-([1,3]-5,5-dimethyldioxan-2-yl)-2H-benzopyran-4-yl)-N'-benzyl guanidine] | – | – | – | > 1000
CCOC(OCC)[C@@]1(C)Oc2ccc(N)cc2[C@@H](NC(=NC#N)NCc2ccccc2)[C@@H]1O [Example 67, (2S, 3S, 4R)-N''-cyano-N-(6-amino-3,4-dihydro-3-hydroxy-2-methyl-2-diethoxymethyl-2H-benzopyran-4-yl)-N'-benzylguanidine] | – | – | – | > 1000
COC(=O)c1ccc2c(c1)[C@@H](NC(=NC#N)NCc1ccccc1)[C@H](O)[C@@](C)(C(OC)OC)O2 [Example 68, (2S, 3S, 4R)-N''-cyano-N-(6-methoxycarbonyl-3,4-dihydro-3-hydroxy-2-methyl-2-dimthoxymethyl-2H-benzopyran-4-yl)-N'-benzylguanidine] | – | – | – | > 1000
COC(=O)c1ccc2c(c1)[C@@H](NC(=NC#N)NCc1ccccc1)[C@H](O)[C@](C)(C(OC)OC)O2 [Example 69, (2R, 3S, 4R)-N''-cyano-N (6-methoxycarbonyl-3,4-dihydro-3-hydroxy-2-methyl-2-dimthoxymethyl-2H-benzopyran-4-yl)-N'-benzylguanidine] | – | – | – | > 1000
COC(OC)[C@@]1(C)Oc2c(N)cccc2[C@@H](NC(=NC#N)NCc2ccccc2)[C@@H]1O [Example 71, (2S, 3S, 4R)-N''-cyano-N-(8-amino-3,4-dihydro-3-hydroxy-2-methyl-2-dimthoxymethyl-2H-benzopyran-4-yl)-N'-benzylguanidine] | – | – | – | > 1000
COC(OC)[C@]1(C)Oc2c(N)cccc2[C@@H](NC(=NC#N)NCc2ccccc2)[C@@H]1O [Example 72, (2R, 3S, 4R)-N''-cyano-N-(8-amino-3,4-dihydro-3-hydroxy-2-methyl-2-dimthoxymethyl-2H-benzopyran-4-yl)-N'-benzylguanidine] | – | – | – | > 1000
